Source: US20250276960A1, “CRYSTALLINE FORMS OF (R)-6-CHLORO-3-((1-(2-CYANO-7-METHYL-3-MORPHOLINOQUINOXALIN-5-YL)ETHYL)AMINO)PICOLINIC ACID” (MIRATI THERAPEUTICS, INC., priority 2024, published 2025)
In brackets after ≈: the same amount, converted by molar mass.

Columns and labels:
[1] = Thermal stability (DSC/TGA) of crystalline form; format: physicochemical; settings: crystalline form (Form 1)
Protocol: (§1) The crystalline form of Compound 1 is highly crystalline and has a needle/thin rod-like morphology. FIG. 2A and 2B are polarized light microscopy (PLM) images of this crystalline form of Compound 1. Additionally, the crystalline form of Compound 1 was characterized by PXRD, DSC, TGA, ^1H-NMR, HPLC, and DVS. The solvent used for the ^1H-NMR was methanol.
(§2) The crystalline form has a high melting temperature (˜177-180° C.) with no thermal degradation until >210° C. The crystalline form appears to be an anhydrous form and is non-hygroscopic. The crystalline form was analyzed by PXRD before and after DVS.

[2] = Solubility of amorphous solids of Compound 1 in single solvents at room temperature; format: physicochemical
Protocol: The amorphous solids of Compound 1 as prepared in Example 1 was measured in 20 single solvents at room temperature and crystallization screening was then conducted in the same set of solvents. For each solvent tested, a slurry of the amorphous solids and the solvent was prepared with a […] and the amorphous solids were allowed to dissolve. The slurry was then agitated with a stir bar for approximately 1 hour at room temperature. The wet solids were then analyzed by powder X-ray diffraction (PXRD). The solids were collected and dried under vacuum for 1 day and the crystalline form was confirmed by PXRD. Only one crystalline form was obtained and designated as Form 1.

[3] = Dynamic vapor sorption (DVS) of crystalline form; format: physicochemical; settings: crystalline form (Form 1)
Protocol: as §1, §2

[4] = system: T47D (H1047R mutant) cells; assay: CellTiter-Glo 2.0 cell viability assay, T47D; format: cell-based; settings: Homo sapiens, 72 hours, CTG
Protocol: (§3) The ability of a Compound 1 to inhibit the formation of pAKT was measured using alphaLISA Surefire Ultra AKT 1/2/3 (pS473) Assay Kit (#ALSU-PAKT-B50K) was obtained from Perkin Elmer (Waltham, MA). The ability of Compound 1 to decrease the viability of cells was measured using CellTiter-Glo 2.0 (CTG) Luminescent Cell Viability Assay (#G9241) obtained from Promega (Madison, WI).
To prepare assay plates for viability assays, cells were trypsinized, resuspended in fresh media, and viable cells were counted utilizing trypan blue exclusion. […]
Assay day 1, cells were dosed using an Echo Liquid Handler (Beckman Coulter) with compounds at a 10 μm starting concentration and serially diluted (1:4) for a total of 10concentrations. […] After 72 hours of treatment, cell plates were equilibrated to room temperature before adding 15 μl of CTG to each well, plates were then covered in aluminum foil to protect from light, incubated at room temperature for 30 minutes on a microtiter plate shaker, and luminescence readings were collected using a CLARIOstar microplate reader (BMG Labtech, Germany). Percent of vehicle control values were plotted as log (inhibitor) vs. response-Variable slope (four parameters) for curve fitting and IC50 values were determined using XLfit.

[5] = system: phospho-AKT (pAKT) in T47D (H1047R) cells; assay: pAKT alphaLISA Surefire Ultra AKT 1/2/3 (pS473) assay in T47D cells; format: cell-based; settings: Homo sapiens, 24 hr treatment
Protocol: as §3
To prepare assay plates for pAKT alphaLISA assays, cells were trypsinized, resuspended in fresh media, and viable cells were counted utilizing trypan blue exclusion. Prior to seeding, cells were washed with PBS and resuspended in HBSS (Gibco, #14025092). […]
Immediately after seeding, cells were dosed using an Echo Liquid Handler (Beckman Coulter) with compounds at a 10.4 μm starting concentration and serially diluted (1:4) for a total of 10concentrations. […] Plates were then imaged the following day using a CLARIOstar microplate reader (BMG Labtech, Germany).
Percent of control values were calculated by subtracting the average signal from the positive control (alpelisib) treated wells from all treated wells (including DMSO control wells) and then divided by the average signal from the vehicle DMSO treated control wells. Percent of vehicle control values were plotted as log (inhibitor) vs. response-Variable slope (four parameters) for curve fitting and IC50 values were determined using XLfit.

With `Cc1cc([C@@H](C)Nc2ccc(Cl)nc2C(=O)O)c2nc(N3CCOCC3)c(C#N)nc2c1` [Compound 1, (R)-6-chloro-3-((1-(2-cyano-7-methyl-3-morpholinoquinoxalin-5-yl)ethyl)amino) picolinic acid] the “Temperature until which no thermal degradation” value [1] was greater than 210 °C, the solubility ([2]; organic solvent or mixture, thermodynamic from solid, 1,4-Dioxane) was greater than 221 mg/mL and the solubility ([2]; organic solvent or mixture, thermodynamic from solid, 2-MeTHF) was greater than 230 mg/mL. The solubility ([2]; organic solvent or mixture, thermodynamic from solid, ACN) was greater than 202 mg/mL, the solubility ([2]; organic solvent or mixture, thermodynamic from solid, DCM) was greater than 192 mg/mL and the solubility ([2]; organic solvent or mixture, thermodynamic from solid, DMF) was greater than 216 mg/mL. The solubility ([2]; organic solvent or mixture, thermodynamic from solid, DMSO) was greater than 241 mg/mL, the solubility ([2]; organic solvent or mixture, thermodynamic from solid, EtOAc) was greater than 204 mg/mL and the solubility ([2]; organic solvent or mixture, thermodynamic from solid, EtOH) was 43 to 53.7 mg/mL (≈ 94.9 to 119 mM). It also gave a solubility ([2]; organic solvent or mixture, thermodynamic from solid, IPA) of 14.4 to 16.8 mg/mL (≈ 31.8 to 37.1 mM), a solubility ([2]; organic solvent or mixture, thermodynamic from solid, IPAc) greater than 221 mg/mL and a solubility ([2]; organic solvent or mixture, thermodynamic from solid, MEK) greater than 191 mg/mL. The solubility ([2]; organic solvent or mixture, thermodynamic from solid, MIBK) was greater than 189 mg/mL, the solubility ([2]; organic solvent or mixture, thermodynamic from solid, MTBE) was 102 to 221 mg/mL (≈ 226 to 488 mM) and the solubility ([2]; organic solvent or mixture, thermodynamic from solid, MeOH) was greater than 210 mg/mL. The solubility ([2]; organic solvent or mixture, thermodynamic from solid, THF) was greater than 215 mg/mL, the solubility ([2]; organic solvent or mixture, thermodynamic from solid, acetone) was greater than 230 mg/mL and the solubility ([2]; organic solvent or mixture, thermodynamic from solid, heptane) was less than 1.3 mg/mL. The solubility ([2]; organic solvent or mixture, thermodynamic from solid, nPA) was 47.1 to 58.9 mg/mL (≈ 104 to 130 mM), the solubility ([2]; organic solvent or mixture, thermodynamic from solid, toluene) was greater than 204 mg/mL and the solubility ([2]; thermodynamic from solid, water) was less than 1.3 mg/mL. The “Form change by PXRD before and after DVS” value [3] was “no form change”, the “Hygroscopicity (DVS)” value [3] was “non-hygroscopic” and the “DVS weight gain at 80% RH” value ([3]; 80% RH) was 0.11%. For the same compound, the IC50 [4] was 24 nM and the IC50 [5] was 1.8 nM.
